These results are taken from patent publication US8106155B2, “Test kit for determining process for determining antibiotics containing a beta-lactam ring in a biological fluid” (Neogen Corporation, priority 1998, dated 2012).

Read-outs that look alike come from different tables or passages of the source.

In assay [1] the target is T1, BlaR-CTD receptor in the form of two fusion proteins with alkaline phosphatase and peroxidase (Bacillus licheniformis, UniProt P12287).
T1 construct: uses the BlaR-CTD receptor in the form of two fusion proteins with alkaline phosphatase and peroxidase, respectively; alkaline phosphatase, chemically coupled (Boehringer-Mannheim 1464752); peroxidase, chemically coupled (Boehringer-Mannheim 1428861)
The assay is described as follows: Example 3: BlaR-CTD fusion proteins with alkaline phosphatase and peroxidase, cephalosporin C microplate, milk. In kind it is binding. The note with it: absorbance at 405 nm, 47° C., at the control thresholds required by the US authorities. An excerpt:
This example illustrates the detection in milk of 3 antibiotics containing a β-lactam ring which are controlled by the health authorities. The test described in this example uses the BlaR-CTD receptor in the form of two fusion proteins with alkaline phosphatase and peroxidase, respectively, and uses a support in the form of a microplate.
Polystyrene microplates with high protein adsorption, of the brand name NUNK (Immuno Plate: Maxisorp type) or of the brand name GREINER (microlon 600, reference 705071), are used. The microplate cuvettes are washed with 150 mM, pH 7.2 PBS buffer. Next, an aliquot of the solution prepared in Example 3.3.1. is incubated for 24 hours at 4° C. in the cuvettes. After incubation, the cuvettes are washed three times with 150 mM, pH 7.2 PBS buffer, 0.1% Tween-20. The tube is then saturated for two hours at 20° C. with 150 mM, pH 7.2 PBS saturation buffer, 5% BSA. After washing three times with washing buffer, the tubes are dried and stored at 4° C. away from moisture.
For the cuvettes intended for the BlaR-CTD-alkaline phosphatase recognition agent, the washing buffer used is 1 M, pH 9.8 diethanolamine, 0.5 mM MgCl2: for the cuvettes intended for the BlaR-CTD-peroxidase recognition agent, the washing buffer used is 50 mM, pH 5 potassium phosphate.
1.4 picomol of labelled recognition agent are incubated in the presence of 100 μl of doped milk for 5 minutes at 47° C. The milk is transferred using a pipette into a cuvette which has been pretreated as indicated in Example 2.3. The milk is then incubated for 2 minutes at 47° C. […] The plate is then placed in an automatic spectrophotometer for ELISA plates, the wavelength being set at 405 nm.

Assay [2] deals with T2, BlaR-CTD receptor (Bacillus licheniformis, UniProt P12287).
T2 construct: uses the BlaR-CTD receptor coupled to gold beads
Kind of assay: 20-minute test: BlaR-CTD coupled to gold beads, membrane test device, milk. In kind it is binding. The note with it: 47° C.; for Intensity 1st band: 20-minute test, scale 0 to 10, reference band 6. The method, then: This example illustrates the detection in milk of antibiotics containing a β-lactam ring, which are controlled by the health authorities. The test described in this example uses the BlaR-CTD receptor coupled to gold beads which serve as labelling agents, and uses a support in the form of a test device comprising a solid support to which membranes are attached.
6 samples of fresh milk containing 0; 20; 30; 40; 50 and 60 ppb of ceftiofur, respectively, are prepared. Each of these solutions is then analyzed in the following way.
A 200 μl aliquot sample of milk and 45.27 μl of solution prepared in Example 1.1.3 are taken and placed in a glass flask. This mixture is incubated for 18 minutes at 47° C. A test device is taken and placed vertically in the glass flask such that the first end of the test device is in contact with the mixture and such that the second end rests on the wall of the glass flask. The mixture is left to migrate on the test device, while incubating the assembly for 2 minutes at 47° C.
An intensity value ranging from 0 to 10 is attributed to the bands detected, the value 10 being given to the most intense band and the value 0 being given to the least intense band. According to this scale, a value of 6 is assigned to the reference band. The intensity of the signal observed in the first band is inversely proportional to the amount of ceftiofur present in the sample.
In this example, when the first band has an intensity less than that of the second band, the test is considered as being positive.

In assay [3] the target is soluble exocellular D-alanyl-D-alanine carboxypeptidase (enzyme R39) (Actinomadura sp., UniProt P39045). The note with it: cited from earlier work.
Sequence of soluble exocellular D-alanyl-D-alanine carboxypeptidase (enzyme R39) (P39045 50-515): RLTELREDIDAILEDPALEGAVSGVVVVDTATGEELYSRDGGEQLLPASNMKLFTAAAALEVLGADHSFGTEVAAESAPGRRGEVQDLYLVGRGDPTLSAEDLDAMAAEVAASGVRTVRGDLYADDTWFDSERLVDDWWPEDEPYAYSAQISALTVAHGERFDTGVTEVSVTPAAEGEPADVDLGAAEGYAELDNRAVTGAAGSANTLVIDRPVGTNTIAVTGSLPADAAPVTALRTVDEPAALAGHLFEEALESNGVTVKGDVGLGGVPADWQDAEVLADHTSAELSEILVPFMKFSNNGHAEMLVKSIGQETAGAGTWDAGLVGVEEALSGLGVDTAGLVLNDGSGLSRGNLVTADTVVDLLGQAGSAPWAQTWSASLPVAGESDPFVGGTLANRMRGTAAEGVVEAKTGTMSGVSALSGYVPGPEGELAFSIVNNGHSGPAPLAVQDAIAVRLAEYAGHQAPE

T2 sequence (P12287 354-601): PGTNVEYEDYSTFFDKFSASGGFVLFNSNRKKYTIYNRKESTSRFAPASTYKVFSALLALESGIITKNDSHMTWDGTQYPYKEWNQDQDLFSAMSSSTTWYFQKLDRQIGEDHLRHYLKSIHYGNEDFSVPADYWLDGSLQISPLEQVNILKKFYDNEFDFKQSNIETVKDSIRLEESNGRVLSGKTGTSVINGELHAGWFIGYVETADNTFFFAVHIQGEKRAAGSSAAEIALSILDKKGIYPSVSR
T1 sequence (P12287 354-601): as above

In the case of `CO/N=C(\C(=O)N[C@@H]1C(=O)N2C(C(=O)O)=C(CSC(=O)c3ccco3)CS[C@H]12)c1csc(N)n1` [ceftiofur], the “concentration detected in milk” value in assay [1] is 50 ppb. The “Intensity 1st band” value is 6 in assay [2] (20 ppb ceftiofur in milk); 5 in assay [2] (30 ppb ceftiofur in milk); 4 in assay [2] (40 ppb ceftiofur in milk); 3 in assay [2] (50 ppb ceftiofur in milk); 3 in assay [2] (60 ppb ceftiofur in milk). For the same compound, in assay [2] (test in 20 minutes, positive when 1st band less intense than 2nd band), the “concentration detected in a sample of milk” value was 30 ppb.
Turning to `CC1(C)S[C@@H]2[C@H](NC(=O)Cc3ccccc3)C(=O)N2[C@H]1C(=O)O` [penicillin G], the “concentration detected in milk” value in assay [1] was found to be 5 ppb. Further, the “concentration determined in milk” value was 10 ppb in assay [3] (total incubation time of 5 minutes) and “about 2.5 ppb” in assay [3] (total incubation time of 15 minutes).
